Source: patent US11857601B2, “Pharmaceutical composition for cancer treatment comprising fusion protein including IL-2 protein and CD80 protein and anticancer drug” (GI INNOVATION, INC., priority 2020, dated 2024)

Tests used:
IL-2Rα = target: T1, IL-2Rα (Homo sapiens, UniProt P01589); test: Binding to IL-2Rα (Octet, AR2G biosensor); conditions: as compared with GI101w and Proleukin
T1 construct: purchased Acro ILA-H52H9
T1 sequence (P01589 22-272): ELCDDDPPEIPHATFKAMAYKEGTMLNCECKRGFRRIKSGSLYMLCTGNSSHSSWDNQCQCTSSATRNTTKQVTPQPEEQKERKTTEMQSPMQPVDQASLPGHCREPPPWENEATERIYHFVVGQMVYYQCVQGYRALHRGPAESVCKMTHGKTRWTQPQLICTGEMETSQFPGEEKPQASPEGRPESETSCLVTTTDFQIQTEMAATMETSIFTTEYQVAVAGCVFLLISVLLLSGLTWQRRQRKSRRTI
Procedure: The binding ability for IL-2Rα was measured using the AR2G biosensor, and the binding ability for IL-2Rβ was measured using the Ni-NTA biosensors (Nickel charged Tris-NTA, Ni-NTA Biosensors, ForteBio, 18-5101).
A ligand (IL-2Rα-His Tag, Acro, Cat: ILA-H52H9) to be attached to the AR2G biosensor was diluted with 10 mM acetate buffer (pH 5, AR2G reagent Kit, ForteBio, Cat: 18-5095) to a concentration of 5 μg/ml. The AR2G biosensor was activated with a buffer prepared by mixing 400 mM EDC and 100 mM sulfo-NHS, and then the diluted ligand was loaded on the AR2G biosensor for 300 seconds and fixed.
Thereafter, GI101, GI101w, or Proleukin (Novartis, hIL-2), at various concentrations, to be attached to the ligand was loaded thereon for 300 seconds. Then, binding thereof was measured and dissociation thereof was also measured for 300 seconds. Binding kinetics analysis was performed using Octet Data Analysis HT software ver. 10 provided by Pall Corporation. The results are illustrated in FIGS. 22 to 24.

[1] = tested on: immune cells in cancer tissues; test: Immune cell analysis in CT-26 cancer tissue (FACS); type: in vivo, BALB/c mice
From the text: The mice of each group in Experimental Example 16.1 were sacrificed when the tumor volume reached an average of 200 mm^3, and cancer tissues were collected.

MDA-MB-231 cells = test: Cancer cell killing, GI-101 and Ribociclib, MDA-MB-231 with PBMCs; type: cell-based, human; conditions: GI-101 100 nM, Ribociclib 913 nM, 24 hours, compared with co-culturing only cancer cells and PBMCs
From the text: This experiment was to evaluate the effect of killing cancer cells by treating MDA-MB-231 cells (human breast cancer cells) with the test substance GI-101 alone or in combination with Ribociclib substance in an in vitro environment.
MDA-MB-231 cells were purchased from the Korea cell line bank and cultured in RPMI1640 medium (Gibco) containing 10% FBS (Gibco) and 1% antibiotic/antifungal agent (Gibco). For use in cancer cell killing test, the cells were harvested using trypsin (Gibco), and then suspended in RPMI1640 medium, and then dead cells and debris were removed using Ficoll (GE Healthcare Life Sciences) solution. The cells suspended in RPMI1640 medium were carefully layered on ficoll solution. […]
In order to identify the effect of killing the cells, a CytoTox Green reagent ([…]™ CytoTox Green, Satorius) that binds to the DNA of cells to be killed was prepared in 1 μl per 1 mL of RPMI1640 medium containing 5% human AB serum (Sigma). The prepared medium was used for dilution of the test substance, and the effect of killing the cells could be quantitatively identified by staining the cells to be killed when the test substance was co-cultured with cancer cell lines and PBMCs. […]

## GI101: fusion protein: human CD80 fragment, Ig hinge, Fc domain, linker, IL-2 variant (2M) (R38A, F42A); SEQ ID NO: 9
IL-2Rα
  binding ability for the IL-2 receptor IL-2Rα: low binding ability
[1]; 0.1 mg/kg, compared with anti-PD-1 antibody alone 5 mg/kg
  CD8+ T cells in cancer tissue: significant increase
[1]; 0.1 mg/kg, vs negative control and anti-PD-1 antibody alone
  M1 macrophages: increase
[1]; all GI101 groups
  level of CD86 expression in macrophages and dendritic cells: increased level
[1]; all GI101 groups, vs negative control
  level of expression of IFN-γ in T cells: significantly increased level
MDA-MB-231 cells
  effect of killing cancer cells: co-culturing only cancer cells and PBMCs, the effect of killing cancer cells was identified, and tended to be higher than that of treatment with GI-101 alone
